Experimental data from article PMC5457702 (Molecular cancer therapeutics, 2017).
Like-named read-outs stand apart in the source and are kept apart here.

Tests used:
MM1.S cells [1] = experiment: Flow cytometry cell cycle analysis, MM1.S; assay type: cell-based, human; conditions: 0.5 μM, 24 h
HCC-78 cells = experiment: Cell viability; assay type: cell-based, human; conditions: for IC50: read-out: Cell growth inhibition IC50, HCC78
SAOS2 cells = experiment: Cell viability; assay type: cell-based, human; conditions: for IC50: read-out: Cell growth inhibition IC50, SAOS2
UKE-1 cells [2] = experiment: Cell viability; assay type: cell-based, human; conditions: read-out: Cell growth inhibition IC50, UKE-1
MM1.S cells [3] = experiment: Cell viability; assay type: cell-based, human; conditions: 72 h, read-out: Cell growth inhibition IC50, MM1.S
UKE-1 cells [4] = experiment: Development of drug resistance in UKE-1 cells; assay type: cell-based, human; conditions: two months, starting at IC20
[5] = system: c-MYC, p-STAT3, c-PARP levels in MM1.S cells; experiment: Immunoblotting of biomarkers in MM1.S; assay type: cell-based, human; conditions: 6 h drug exposure
BRD4 = conditions: read-out: IC50(BRD4); cited from earlier work
BRD4-1 [6] = target: T1, BRD4-1 (Homo sapiens, UniProt O60885); experiment: Differential scanning fluorimetry; assay type: binding; conditions: 100 μM inhibitor, 4 μM BRD4-1; mean of 3 experiments in quadruplicate
931 cancer cell lines = experiment: Cancer cell line screening; assay type: cell-based; conditions: 72 h, read-out: mean IC50 across cell line panel
BRD4-1 [7] = target: T1, BRD4-1; experiment: qPCR binding assay, BRD4-1; conditions: read-out: BRD4-1 Kd, qPCR; single experiment in duplicate
BRDT-1 = BRDT-1 (Homo sapiens, UniProt Q58F21); experiment: Alpha Screen binding assay, BRDT-1; conditions: relative to BRD4

Row | Compound | cell cycle effect / G1 arrest (MM1.S cells [1]) | IC50 (HCC-78 cells; Homo sapiens, HCC78, 72 h) | IC50 (SAOS2 cells; Homo sapiens, SAOS-2, 72 h) | IC50 (UKE-1 cells [2]; Homo sapiens, UKE1, 72 h) | IC50 (MM1.S cells [3]; Homo sapiens, MM1.S) | development of resistance upon prolonged exposure (UKE-1 cells [4]) | onset of apoptosis, c-PARP levels [5] | IC50 (HCC-78 cells; 72 h, Cell titer blue) | IC50 (SAOS2 cells; 72 h, Cell titer blue) | IC50 (UKE-1 cells [2]; 72 h, Cell titer blue) | ΔTm, DSF (BRD4-1 [6]) | IC50 (MM1.S cells [3]; Cell titer blue) | other results
1 | CC(C)(C)c1cc(NC(=O)Nc2ccc(-c3cn4c(n3)sc3cc(OCCN5CCOCC5)ccc34)cc2)no1 [Quizartinib] | only slightly affected | > 10 µM | > 10 µM | 9.5 µM | > 10 µM |  |  |  |  |  |  |  | 
2 | N#CC[C@H](C1CCCC1)n1cc(-c2ncnc3[nH]ccc23)cn1 [Ruxolitinib] | only slightly affected | > 10 µM | > 10 µM | 0.17 µM | > 10 µM | readily developed resistance | ineffective |  |  |  |  |  | 
3 | Cc1cnc(Nc2ccc(N3CCN(C)CC3)cc2)nc1Nc1cccc(S(=O)(=O)NC(C)(C)C)c1 [TG101209] | moderate increase of cells in G1 |  |  |  |  | readily developed resistance |  | 1.9 µM | 1.5 µM | 0.32 µM | 6.8 °C | 1.4 µM | IC50 (BRD4): […]
4 | Cc1cnc(Nc2ccc(OCCN3CCCC3)cc2)nc1Nc1cccc(S(=O)(=O)NC(C)(C)C)c1 [TG101348] |  |  |  |  |  |  |  |  |  |  |  |  | IC50 (931 cancer cell lines): 10 µM
5 | (+)-JQ1 |  |  |  |  |  |  | ineffective | 2.6 µM | 1.5 µM | 0.21 µM | 8.8 °C | 0.1 µM | maximum fraction affected, HCC-78 (HCC-78 cells; 72 h, Hill fit): ~ 0.5; maximum fraction affected, SAOS-2 (SAOS2 cells; 72 h, Hill fit): ~ 0.5; Kd (BRD4-1 [7]): 0.0091 µM; fold less active against BRDT-1 (BRDT-1): 7 fold
